According to patent US20160271263A1 (Novo Nordisk A/S, priority 2010, published 2016):
Numbered stars: 1 amine (or outer) side, 2 acyl side, 3 side chain; on linkers, the order of the positions; unused ones are H or OH. Side chains are listed from the residue outwards. Peptide text beside a SMILES is read from it. * marks the point of attachment. C18 diacid = O=C(O)CCCCCCCCCCCCCCCCC(=O)*; γGlu = O=C(O)[C@H](CCC(=O)[*:2])N[*:1]; AEEA = NCCOCCOCC(=O)O

The compounds below were run against glucagon receptor (Homo sapiens, UniProt P47871) (assay: cell-based).
glucagon receptor, sequence (P47871 26-477): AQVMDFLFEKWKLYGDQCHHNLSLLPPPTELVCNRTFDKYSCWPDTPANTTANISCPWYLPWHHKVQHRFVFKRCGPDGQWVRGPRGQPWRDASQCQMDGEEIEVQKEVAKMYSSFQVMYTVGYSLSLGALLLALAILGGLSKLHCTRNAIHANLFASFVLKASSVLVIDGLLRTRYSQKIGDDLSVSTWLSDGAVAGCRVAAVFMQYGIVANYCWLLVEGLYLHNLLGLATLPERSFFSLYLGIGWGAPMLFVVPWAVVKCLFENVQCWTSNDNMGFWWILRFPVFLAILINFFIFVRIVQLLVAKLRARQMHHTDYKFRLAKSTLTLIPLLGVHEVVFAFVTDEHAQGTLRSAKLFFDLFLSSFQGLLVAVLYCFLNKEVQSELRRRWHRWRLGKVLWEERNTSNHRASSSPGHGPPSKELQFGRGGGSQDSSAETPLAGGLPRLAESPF

SMILES | EC50
CC(C)C[C@H](NC(=O)[C@H](Cc1ccc(O)cc1)NC(=O)[C@H](CCCCN)NC(=O)[C@H](CO)NC(=O)[C@H](Cc1ccc(O)cc1)NC(=O)[C@H](CC(=O)O)NC(=O)[C@H](CO)NC(=O)[C@@H](NC(=O)[C@H](Cc1ccccc1)NC(=O)[C@@H](NC(=O)CNC(=O)[C@H](CCC(N)=O)NC(=O)[C@H](CO)NC(=O)[C@@H](N)Cc1c[nH]cn1)[C@@H](C)O)[C@@H](C)O)C(=O)N[C@@H](CC(=O)O)C(=O)N[C@@H](CCCCNC(=O)CC[C@H](NC(=O)COCCOCCNC(=O)COCCOCCNC(=O)CC[C@H](NC(=O)CC[C@H](NC(=O)CCCCCCCCCCCCCCCCC(=O)O)C(=O)O)C(=O)O)C(=O)O)C(=O)N[C@@H](CCCNC(=N)N)C(=O)N[C@@H](CCCNC(=N)N)C(=O)N[C@@H](C)C(=O)N[C@@H](CCC(N)=O)C(=O)N[C@@H](CC(=O)O)C(=O)N[C@@H](Cc1ccccc1)C(=O)N[C@H](C(=O)N[C@@H](CCC(N)=O)C(=O)N[C@@H](Cc1c[nH]c2ccccc12)C(=O)N[C@@H](CC(C)C)C(=O)N[C@@H](CC(C)C)C(=O)N[C@@H](CC(N)=O)C(=O)N[C@H](C(=O)O)[C@@H](C)O)C(C)C [Example 78, N^ε16-[(4S)-4-carboxy-4-[[2-[2-[2-[[2-[2-[2-[[(4S)-4-carboxy-4-[[(4S)-4-carboxy-4-(17-carboxyheptadecanoylamino)butanoyl]amino]butanoyl]amino]ethoxy]ethoxy]acetyl]amino]ethoxy]ethoxy]acetyl]amino]butanoyl]-[Lys^16,Leu^27]-Glucagon] (H-HSQGTFTSDYSKYLDK([γGlu-AEEA-AEEA-γGlu-γGlu-C18 diacid])RRAQDFVQWLLNT-OH; N-terminus and C-terminus assumed) | 0.122 nM
CC(C)C[C@H](NC(=O)[C@H](Cc1ccc(O)cc1)NC(=O)[C@H](CCCCNC(=O)CC[C@H](NC(=O)CC[C@H](NC(=O)COCCOCCNC(=O)COCCOCCNC(=O)CC[C@H](NC(=O)CCCCCCCCCCCCCCCCC(=O)O)C(=O)O)C(=O)O)C(=O)O)NC(=O)[C@H](CO)NC(=O)[C@H](Cc1ccc(O)cc1)NC(=O)[C@H](CC(=O)O)NC(=O)[C@H](CO)NC(=O)[C@@H](NC(=O)[C@H](Cc1ccccc1)NC(=O)[C@@H](NC(=O)CNC(=O)[C@H](CCC(N)=O)NC(=O)[C@H](CO)NC(=O)[C@@H](N)Cc1c[nH]cn1)[C@@H](C)O)[C@@H](C)O)C(=O)N[C@@H](CC(=O)O)C(=O)N[C@@H](CO)C(=O)N[C@@H](CCCNC(=N)N)C(=O)N[C@@H](CCCNC(=N)N)C(=O)N[C@@H](C)C(=O)N[C@@H](CCC(N)=O)C(=O)N[C@@H](CC(=O)O)C(=O)N[C@@H](Cc1ccccc1)C(=O)N[C@H](C(=O)N[C@@H](CCC(N)=O)C(=O)N[C@@H](Cc1c[nH]c2ccccc12)C(=O)N[C@@H](CC(C)C)C(=O)N[C@@H](CC(C)C)C(=O)N[C@@H](CC(N)=O)C(=O)N1CCC[C@H]1C(=O)O)C(C)C [Example 80, N^ε12-[(4S)-4-carboxy-4-[[(4S)-4-carboxy-4-[[2-[2-[2-[[2-[2-[2-[[(4S)-4-carboxy-4-(17-carboxyheptadecanoylamino)butanoyl]amino]ethoxy]ethoxy]acetyl]amino]ethoxy]ethoxy]acetyl]amino]butanoyl]amino]butanoyl]-[Leu^27,Pro^29]-Glucagon] | 1.58 nM
CC(C)C[C@H](NC(=O)[C@H](Cc1ccc(O)cc1)NC(=O)[C@H](CCCCN)NC(=O)[C@H](CO)NC(=O)[C@H](Cc1ccc(O)cc1)NC(=O)[C@H](CC(=O)O)NC(=O)[C@H](CO)NC(=O)[C@@H](NC(=O)[C@H](Cc1ccccc1)NC(=O)[C@@H](NC(=O)CNC(=O)[C@H](CCC(N)=O)NC(=O)[C@H](CO)NC(=O)[C@@H](N)Cc1c[nH]cn1)[C@@H](C)O)[C@@H](C)O)C(=O)N[C@@H](CC(=O)O)C(=O)N[C@@H](CO)C(=O)N[C@@H](CCCNC(=N)N)C(=O)N[C@@H](CCCNC(=N)N)C(=O)N[C@@H](C)C(=O)N[C@@H](CCC(N)=O)C(=O)N[C@@H](CC(=O)O)C(=O)N[C@@H](Cc1ccccc1)C(=O)N[C@H](C(=O)N[C@@H](CCC(N)=O)C(=O)N[C@@H](Cc1c[nH]c2ccccc12)C(=O)N[C@@H](CC(C)C)C(=O)N[C@@H](CC(C)C)C(=O)N[C@@H](CCCCNC(=O)CC[C@H](NC(=O)CC[C@H](NC(=O)COCCOCCNC(=O)COCCOCCNC(=O)CC[C@H](NC(=O)CCCCCCCCCCCCCCCCC(=O)O)C(=O)O)C(=O)O)C(=O)O)C(=O)N[C@H](C(=O)N1CCC[C@H]1C(=O)O)[C@@H](C)O)C(C)C [Example 82, N^ε28-[(4S)-4-carboxy-4-[[(4S)-4-carboxy-4-[[2-[2-[2-[[2-[2-[2-[[(4S)-4-carboxy-4-(17-carboxyheptadecanoylamino)butanoyl]amino]ethoxy]ethoxy]acetyl]amino]ethoxy]ethoxy]acetyl]amino]butanoyl]amino]butanoyl]-[Leu^27,Lys^28]-Glucagonyl-Pro] | 0.128 nM
CC(C)C[C@H](NC(=O)[C@H](Cc1ccc(O)cc1)NC(=O)[C@H](CCCCN)NC(=O)[C@H](CO)NC(=O)[C@H](Cc1ccc(O)cc1)NC(=O)[C@H](CC(=O)O)NC(=O)[C@H](CO)NC(=O)[C@@H](NC(=O)[C@H](Cc1ccccc1)NC(=O)[C@@H](NC(=O)CNC(=O)[C@H](CCC(N)=O)NC(=O)[C@H](CO)NC(=O)[C@@H](N)Cc1c[nH]cn1)[C@@H](C)O)[C@@H](C)O)C(=O)N[C@@H](CC(=O)O)C(=O)N[C@@H](CO)C(=O)N[C@@H](CCCNC(=N)N)C(=O)N[C@@H](CCCNC(=N)N)C(=O)N[C@@H](C)C(=O)N[C@@H](CCC(N)=O)C(=O)N[C@@H](CC(=O)O)C(=O)N[C@@H](Cc1ccccc1)C(=O)N[C@H](C(=O)N[C@@H](CCCCNC(=O)CC[C@H](NC(=O)CC[C@H](NC(=O)COCCOCCNC(=O)COCCOCCNC(=O)CC[C@H](NC(=O)CCCCCCCCCCCCCCCCC(=O)O)C(=O)O)C(=O)O)C(=O)O)C(=O)N[C@@H](Cc1c[nH]c2ccccc12)C(=O)N[C@@H](CC(C)C)C(=O)N[C@@H](CC(C)C)C(=O)N[C@@H](CC(N)=O)C(=O)N1CCC[C@H]1C(=O)O)C(C)C [Example 81, N^ε24-[(4S)-4-carboxy-4-[[(4S)-4-carboxy-4-[[2-[2-[2-[[2-[2-[2-[[(4S)-4-carboxy-4-(17-carboxyheptadecanoylamino)butanoyl]amino]ethoxy]ethoxy]acetyl]amino]ethoxy]ethoxy]acetyl]amino]butanoyl]amino]butanoyl]-[Lys^24,Leu^27,Pro^29]-Glucagon] | 0.156 nM

Continued by falling EC50, values first:

EC50 | SMILES
0.12 nM | CC(C)C[C@H](NC(=O)[C@H](Cc1ccc(O)cc1)NC(=O)[C@H](CCCCN)NC(=O)[C@H](CO)NC(=O)[C@H](Cc1ccc(O)cc1)NC(=O)[C@H](CC(=O)O)NC(=O)[C@H](CO)NC(=O)[C@@H](NC(=O)[C@H](Cc1ccccc1)NC(=O)[C@@H](NC(=O)CNC(=O)[C@H](CCC(N)=O)NC(=O)[C@H](CO)NC(=O)[C@@H](N)Cc1c[nH]cn1)[C@@H](C)O)[C@@H](C)O)C(=O)N[C@@H](CC(=O)O)C(=O)N[C@@H](CO)C(=O)N[C@@H](CCCNC(=N)N)C(=O)N[C@@H](CCCNC(=N)N)C(=O)N[C@@H](C)C(=O)N[C@@H](CCC(=O)O)C(=O)N[C@@H](CCC(=O)O)C(=O)N[C@@H](Cc1ccccc1)C(=O)N[C@H](C(=O)N[C@@H](CCCCNC(=O)CC[C@H](NC(=O)CC[C@H](NC(=O)COCCOCCNC(=O)CC[C@H](NC(=O)CCCCCCCCCCCCCCCCC(=O)O)C(=O)O)C(=O)O)C(=O)O)C(=O)N[C@@H](Cc1c[nH]c2ccccc12)C(=O)N[C@@H](CC(C)C)C(=O)N[C@@H](CC(C)C)C(=O)N[C@@H](CO)C(=O)N[C@H](C(=O)O)[C@@H](C)O)C(C)C [Example 93, N^ε24-[(4S)-4-carboxy-4-[[(4S)-4-carboxy-4-[[2-[2-[2-[[(4S)-4-carboxy-4-(17-carboxyheptadecanoylamino)butanoyl]amino]ethoxy]ethoxy]acetyl]amino]butanoyl]amino]butanoyl]-[Glu^20,Glu^21,Lys^24,Leu^27,Ser^28]-Glucagon] (H-HSQGTFTSDYSKYLDSRRAEEFVK([γGlu-γGlu-AEEA-γGlu-C18 diacid])WLLST-OH)
0.058 nM | CC(C)C[C@H](NC(=O)[C@H](Cc1ccc(O)cc1)NC(=O)[C@H](CCCCN)NC(=O)[C@H](CO)NC(=O)[C@H](Cc1ccc(O)cc1)NC(=O)[C@H](CC(=O)O)NC(=O)[C@H](CO)NC(=O)[C@@H](NC(=O)[C@H](Cc1ccccc1)NC(=O)[C@@H](NC(=O)CNC(=O)[C@H](CCC(N)=O)NC(=O)[C@H](CO)NC(=O)[C@@H](N)Cc1c[nH]cn1)[C@@H](C)O)[C@@H](C)O)C(=O)N[C@@H](CC(=O)O)C(=O)N[C@@H](CO)C(=O)N[C@@H](CCCNC(=N)N)C(=O)N[C@@H](CCCNC(=N)N)C(=O)N[C@@H](C)C(=O)N[C@@H](CCCCNC(=O)CC[C@H](NC(=O)CC[C@H](NC(=O)COCCOCCNC(=O)COCCOCCNC(=O)CC[C@H](NC(=O)CCCCCCCCCCCCCCCCC(=O)O)C(=O)O)C(=O)O)C(=O)O)C(=O)N[C@@H](CC(=O)O)C(=O)N[C@@H](Cc1ccccc1)C(=O)N[C@H](C(=O)N[C@@H](CCC(N)=O)C(=O)N[C@@H](Cc1c[nH]c2ccccc12)C(=O)N[C@@H](CC(C)C)C(=O)N[C@@H](CC(C)C)C(=O)N[C@@H](CC(N)=O)C(=O)N[C@H](C(=O)O)[C@@H](C)O)C(C)C [Example 98, N^ε20-[(4S)-4-carboxy-4-[[(4S)-4-carboxy-4-[[2-[2-[2-[[2-[2-[2-[[(4S)-4-carboxy-4-(17-carboxyheptadecanoylamino)butanoyl]amino]ethoxy]ethoxy]acetyl]amino]ethoxy]ethoxy]acetyl]amino]butanoyl]amino]butanoyl]-[Lys^20,Leu^27]-Glucagon]
0.02 nM | CC(C)C[C@H](NC(=O)[C@H](Cc1ccc(O)cc1)NC(=O)[C@H](CCCCN)NC(=O)[C@H](CO)NC(=O)[C@H](Cc1ccc(O)cc1)NC(=O)[C@H](CC(=O)O)NC(=O)[C@H](CO)NC(=O)[C@@H](NC(=O)[C@H](Cc1ccccc1)NC(=O)[C@@H](NC(=O)CNC(=O)[C@H](CCC(N)=O)NC(=O)[C@H](CO)NC(=O)[C@@H](N)Cc1c[nH]cn1)[C@@H](C)O)[C@@H](C)O)C(=O)N[C@@H](CC(=O)O)C(=O)N[C@@H](CCCCNC(=O)COCCOCCNC(=O)COCCOCCNC(=O)CC[C@H](NC(=O)CCCCCCCCCCCCCCCCC(=O)O)C(=O)O)C(=O)N[C@@H](CCCCN)C(=O)N[C@@H](CCCCN)C(=O)N[C@@H](C)C(=O)N[C@@H](CCC(N)=O)C(=O)N[C@@H](CCC(=O)O)C(=O)N[C@@H](Cc1ccccc1)C(=O)N[C@H](C(=O)N[C@@H](CCC(N)=O)C(=O)N[C@@H](Cc1c[nH]c2ccccc12)C(=O)N[C@@H](CC(C)C)C(=O)N[C@@H](CC(C)C)C(=O)N[C@@H](CC(N)=O)C(=O)N[C@H](C(=O)O)[C@@H](C)O)C(C)C [Example 6] (H-HSQGTFTSDYSKYLDK([AEEA-AEEA-γGlu-C18 diacid])KKAQEFVQWLLNT-OH; N-terminus and C-terminus assumed)
